According to patent US10611771B2, “Pyrazolo [3,4-d] pyrimidine derivative” (WEST CHINA HOSPITAL, SICHUAN UNIVERSITY, priority 2016, dated 2020):
Values joined by “and” are separate entries in the source; they are usually repeats but may differ in a detail not shown here. Equal values may be shown once.

Key:
A549 cells = assay: MTT detection method, inhibitory effect against A549 cells; format: cell-based
Excerpt: (§1) MTT detection method was used, and MTT is a yellow compound and a dye accepting hydrogen ions, and can be used as the respiratory chain in mitochondria of viable cells. Under the action of succinate dehydrogenase and cytochrome C, the tetrazolium ring broke to form blue formanzan crystal, and the formation amount of formanzan crystal was only directly proportional to the viable counts. The formanzan crystal formed by reduction can dissolve in dimethyl sulfoxide (DMSO), and the optical density (OD) value can be determined at 490 nm using ELISA, to reflect the viable counts.
(§2) • Lung cancer cell lines: A549 and H1299. • Experimental materials: lung cancer cell lines, instruments and tools for cell culture, MTT, the compound mother liquid (10 mmol/L), and the positive control drug Src inhibitor pp1. 1. Specific Method • (3-1) Cell lines A549 and H1299 were recovered, and when the cells were in good conditions, namely cells grew to about 80% after one passage (i.e. the logarithmic growth phase), the cells were planked (96-well plate). • (3-2) Firstly, cells were collected, and the concentration of cell suspension was adjusted with counting chamber. Cells were seeded in 96-well plate at 1000˜10000 cells/well, and the detailed cell numbers in each well were dependent on the growth rate of different cells and the action time of drugs. A549 cells were seeded at 5000 cells, while H1299 cells were also seeded at 5000 cells, 200 μl for each well (100 μl cell suspension+100 μl drug dilution at different concentration gradient). The edge wells (36) were added 200 μl culture media (for prevention of edge effect). • (3-3) After planking and adding drugs, the plate was treated at 24 h, 48 h, and 72 h, and then for coloration, each well was added 200 μl culture media containing 20 μl MTT solution (5 mg/mL). The plate was continually cultured for 1˜4 hours, the incubation was stopped, and the culture supernatant fluid in each well was carefully absorbed. For suspension cells, the culture supernatant fluid in each well need be centrifuged before drawing. 150 μl DMSO was added to each well, and the plate was shaken on a shaking table for 15˜20 min, to allow the crystals to be completely dissolved. • (3-4) Colorimetry: The colorimetry was performed by ELISA, and the optical absorption value of each well was tested at a wavelength of 490 nm or 570 nm, and the result was recorded. • (3-5) Calculation Inhibition ratio=(the control−the drug)/the control×100% • IC50 (50% inhibitory concentration) can be calculated by spass software based on the inhibitory ratio at different concentration. II. Experimental Results • A549 cells were treated at 4 h, 24 h, 48 h, 72 h, and the drug dose was divided into the light concentration group (10 μm, 25 μm, 40 μm) and the high concentration group (50 μm, 80 μm, 100 μm), that were seeded at 6000 cells/well and 5000 cells/well, respectively, to carry out the experiment.

H1299 cells = assay: MTT detection method, inhibitory effect against H1299 cells; format: cell-based
Excerpt: as §1, §2
H1299 cells were seeded at 5000 cells/well, and after treatment for 4 h, 24 h, 48 h, and 72 h, the results were shown in Tables 5-9 and FIGS. 5-8: […]

## CCCCn1nc(-c2ccc(OCCOCCOCCOCCOS(=O)(=O)c3ccc(C)cc3)cc2)c2c(N)ncnc21 [Compound 2, 2-(2-(2-(2-(4-(4-amino-1-n-butyl-1H-pyrazolo[3,4-d]pyrimidin-3-)phenoxy)ethoxy)ethoxy)ethoxy)ethyl 4-methylbenzenesulfonic Acid]
A549 cells; 4 h, 10 μm
  The inhibitory ratio (%) for three parallel assays: 25.00% and 30.31% and 29.06%
  The mean inhibitory ratio (%): 28.13%
A549 cells; 4 h, 25 μm
  The inhibitory ratio (%) for three parallel assays: 14.38% and 17.19% and 13.44%
  The mean inhibitory ratio (%): 15.00%
A549 cells; 4 h, 40 μm
  The mean inhibitory ratio (%): 14.17%
A549 cells; 4 h, 50 μm
  The inhibitory ratio (%) for three parallel assays: 34.57%
  The mean inhibitory ratio (%): 34.57%
A549 cells; 4 h, 80 μm
  The inhibitory ratio (%) for three parallel assays: 34.86% and 36.86% and 35.14%
  The mean inhibitory ratio (%): 35.62%
A549 cells; 4 h, 100 μm
  The inhibitory ratio (%) for three parallel assays: 39.43% and 38.29% and 35.71%
  The mean inhibitory ratio (%): 37.81%
A549 cells; 24 h, 10 μm
  The inhibitory ratio (%) for three parallel assays: 16.09% and 20.22% and 12.83%
  The mean inhibitory ratio (%): 16.38%
A549 cells; 24 h, 25 μm
  The inhibitory ratio (%) for three parallel assays: 20.43% and 18.48% and 18.70%
  The mean inhibitory ratio (%): 19.20%
A549 cells; 24 h, 40 μm
  The inhibitory ratio (%) for three parallel assays: 18.48% and 24.35% and 23.91%
  The mean inhibitory ratio (%): 22.25%
A549 cells; 24 h, 50 μm
  The inhibitory ratio (%) for three parallel assays: 71.46% and 71.25% and 71.04%
  The mean inhibitory ratio (%): 71.25%
A549 cells; 24 h, 80 μm
  The inhibitory ratio (%) for three parallel assays: 75.63% and 75.83% and 74.79%
  The mean inhibitory ratio (%): 75.42%
A549 cells; 24 h, 100 μm
  The inhibitory ratio (%) for three parallel assays: 73.75% and 75.83% and 74.58%
  The mean inhibitory ratio (%): 74.72%
A549 cells; 48 h, 10 μm
  The inhibitory ratio (%) for three parallel assays: 24.84% and 31.41% and 29.22%
  The mean inhibitory ratio (%): 28.49%
A549 cells; 48 h, 25 μm
  The inhibitory ratio (%) for three parallel assays: 32.66% and 36.72% and 31.56%
  The mean inhibitory ratio (%): 33.65%
A549 cells; 48 h, 40 μm
  The inhibitory ratio (%) for three parallel assays: 47.97% and 47.66% and 49.06%
  The mean inhibitory ratio (%): 48.23%
A549 cells; 48 h, 50 μm
  The inhibitory ratio (%) for three parallel assays: 82.83% and 81.50% and 80.33%
  The mean inhibitory ratio (%): 81.56%
A549 cells; 48 h, 80 μm
  The inhibitory ratio (%) for three parallel assays: 82.67% and 83.00% and 82.83%
  The mean inhibitory ratio (%): 82.83%
A549 cells; 48 h, 100 μm
  The inhibitory ratio (%) for three parallel assays: 83.17% and 83.00% and 82.83%
  The mean inhibitory ratio (%): 83.00%
A549 cells; 72 h, 10 μm
  The inhibitory ratio (%) for three parallel assays: 30.00% and 29.46%
  The mean inhibitory ratio (%): 29.64%
A549 cells; 72 h, 25 μm
  The inhibitory ratio (%) for three parallel assays: 48.74% and 47.21% and 50.00%
  The mean inhibitory ratio (%): 48.65%
A549 cells; 72 h, 40 μm
  The inhibitory ratio (%) for three parallel assays: 68.92% and 70.36% and 70.63%
  The mean inhibitory ratio (%): 69.97%
A549 cells; 72 h, 50 μm
  The inhibitory ratio (%) for three parallel assays: 88.11% and 87.97% and 88.38%
  The mean inhibitory ratio (%): 88.15%
A549 cells; 72 h, 80 μm
  The inhibitory ratio (%) for three parallel assays: 88.51% and 88.38%
  The mean inhibitory ratio (%): 88.47%
A549 cells; 72 h, 100 μm
  The inhibitory ratio (%) for three parallel assays: 88.38% and 88.65% and 88.51%
  The mean inhibitory ratio (%): 88.51%
H1299 cells; 4 h, 10 μm
  The inhibitory ratio (%) for three parallel assays: 9% and 12% and 2%
  The mean inhibitory ratio (%): 7%
H1299 cells; 4 h, 25 μm
  The inhibitory ratio (%) for three parallel assays: 12% and 15%
  The mean inhibitory ratio (%): 13%
H1299 cells; 4 h, 40 μm
  The inhibitory ratio (%) for three parallel assays: 16% and 17%
  The mean inhibitory ratio (%): 16%
H1299 cells; 4 h, 50 μm
  The inhibitory ratio (%) for three parallel assays: 14% and 13%
  The mean inhibitory ratio (%): 14%
H1299 cells; 4 h, 80 μm
  The inhibitory ratio (%) for three parallel assays: 11% and 10%
  The mean inhibitory ratio (%): 11%
H1299 cells; 4 h, 100 μm
  The inhibitory ratio (%) for three parallel assays: 13% and 17% and 12%
  The mean inhibitory ratio (%): 14%
H1299 cells; 24 h, 10 μm
  The inhibitory ratio (%) for three parallel assays: 10% and 9% and 13%
  The mean inhibitory ratio (%): 11%
H1299 cells; 24 h, 25 μm
  The inhibitory ratio (%) for three parallel assays: 26% and 23% and 25%
  The mean inhibitory ratio (%): 25%
H1299 cells; 24 h, 40 μm
  The inhibitory ratio (%) for three parallel assays: 36% and 35% and 37%
  The mean inhibitory ratio (%): 36%
H1299 cells; 24 h, 50 μm
  The inhibitory ratio (%) for three parallel assays: 44% and 45% and 41%
  The mean inhibitory ratio (%): 43%
H1299 cells; 24 h, 80 μm
  The inhibitory ratio (%) for three parallel assays: 42% and 41%
  The mean inhibitory ratio (%): 42%
H1299 cells; 24 h, 100 μm
  The inhibitory ratio (%) for three parallel assays: 40%
  The mean inhibitory ratio (%): 40%
H1299 cells; 48 h, 10 μm
  The inhibitory ratio (%) for three parallel assays: 16% and 20% and 21%
  The mean inhibitory ratio (%): 19%
H1299 cells; 48 h, 25 μm
  The inhibitory ratio (%) for three parallel assays: 37% and 36%
  The mean inhibitory ratio (%): 37%
H1299 cells; 48 h, 40 μm
  The inhibitory ratio (%) for three parallel assays: 57%
  The mean inhibitory ratio (%): 57%
H1299 cells; 48 h, 50 μm
  The inhibitory ratio (%) for three parallel assays: 61%
  The mean inhibitory ratio (%): 61%
H1299 cells; 48 h, 80 μm
  The inhibitory ratio (%) for three parallel assays: 64% and 63% and 62%
  The mean inhibitory ratio (%): 63%
H1299 cells; 48 h, 100 μm
  The inhibitory ratio (%) for three parallel assays: 65% and 64% and 63%
  The mean inhibitory ratio (%): 64%
H1299 cells; 72 h, 10 μm
  The inhibitory ratio (%) for three parallel assays: 28% and 24% and 27%
  The mean inhibitory ratio (%): 26%
H1299 cells; 72 h, 25 μm
  The inhibitory ratio (%) for three parallel assays: 44% and 43% and 42%
  The mean inhibitory ratio (%): 43%
H1299 cells; 72 h, 40 μm
  The inhibitory ratio (%) for three parallel assays: 65% and 64%
  The mean inhibitory ratio (%): 65%
H1299 cells; 72 h, 50 μm
  The inhibitory ratio (%) for three parallel assays: 73% and 74%
  The mean inhibitory ratio (%): 74%
H1299 cells; 72 h, 80 μm
  The inhibitory ratio (%) for three parallel assays: 80% and 78%
  The mean inhibitory ratio (%): 80%
H1299 cells; 72 h, 100 μm
  The inhibitory ratio (%) for three parallel assays: 84% and 83% and 81%
  The mean inhibitory ratio (%): 83%
